The target of one experiment is T1, Subtilisin-like protease 1 (Plasmodium falciparum) (UniProt O61142).
T1 sequence (whole entry): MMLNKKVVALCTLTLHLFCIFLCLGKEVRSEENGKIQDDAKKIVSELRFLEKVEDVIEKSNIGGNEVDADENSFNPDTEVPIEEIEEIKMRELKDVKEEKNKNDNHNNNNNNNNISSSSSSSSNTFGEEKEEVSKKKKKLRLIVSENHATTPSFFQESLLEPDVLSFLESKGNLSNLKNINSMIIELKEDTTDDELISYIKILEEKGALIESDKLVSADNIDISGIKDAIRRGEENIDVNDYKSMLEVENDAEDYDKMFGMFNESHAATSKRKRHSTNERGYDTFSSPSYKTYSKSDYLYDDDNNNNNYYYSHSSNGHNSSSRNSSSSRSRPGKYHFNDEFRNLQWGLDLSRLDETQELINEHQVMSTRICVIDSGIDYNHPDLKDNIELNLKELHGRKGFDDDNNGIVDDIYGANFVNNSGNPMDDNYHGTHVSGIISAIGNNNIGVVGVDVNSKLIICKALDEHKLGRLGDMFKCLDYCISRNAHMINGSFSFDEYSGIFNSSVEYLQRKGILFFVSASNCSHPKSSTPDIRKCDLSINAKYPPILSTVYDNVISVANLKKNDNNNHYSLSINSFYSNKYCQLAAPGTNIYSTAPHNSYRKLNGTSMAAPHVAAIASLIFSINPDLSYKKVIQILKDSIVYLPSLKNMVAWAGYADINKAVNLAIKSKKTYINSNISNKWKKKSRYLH
Put plainly: Inhibition of Plasmodium falciparum SUB1 assessed as residual hydrolytic activity at 50 uM by fluorimetric assay.
Consider `O=[N+]([O-])c1ccc(/C=N/Nc2c3c(nc4ccccc24)CCCC3)cc1`, for which the Activity is 55.8%.

For the molecule `O=[N+]([O-])c1ccc(C=NNc2nc3ccccc3[nH]2)cc1`, the Activity came out at 43.1%.

As for `Cc1cc(/N=C/c2ccc([N+](=O)[O-])cc2)c2cc3c(cc2n1)OCO3`, the Activity came to 72.2%.

Regarding `Cc1cc(N/N=C/c2ccc([N+](=O)[O-])cc2)c2cc3c(cc2n1)OCO3`, the Activity was found to be 27.2%.

Turning to `Cc1cc(N/N=C/c2ccc(S(C)(=O)=O)cc2)c2cc3c(cc2n1)OCO3`, the Activity stood at 76.4%.

Take `Cc1cc(NNC(=O)c2ccc(C#N)cc2)c2cc3c(cc2n1)OCO3`: the Activity was found to be 85.5%.

On to `C/C(=N\Nc1cc(C)nc2cc3c(cc12)OCO3)c1ccc([N+](=O)[O-])cc1`, for which the Activity came to 60.3%.

Turning to `O=C(NNc1nc2ccccc2[nH]1)c1ccc([N+](=O)[O-])cc1`, the Activity was 46.7%.

Turning to `CSc1ccc(/C=N/Nc2cc(C)nc3cc4c(cc23)OCO4)cc1`, the Activity was 77.5%.

Take `Cc1cc(NNC(=O)c2ccc(S(C)(=O)=O)cc2)c2cc3c(cc2n1)OCO3`: the Activity stood at 68.7%.

In the case of `Cc1cc(N/N=C/c2ccc(C#N)cc2)c2cc3c(cc2n1)OCO3`, the Activity came to 29.2%.

For the molecule `Cc1cc(N/N=C/c2ccc(C(F)(F)F)cc2C(F)(F)F)c2cc3c(cc2n1)OCO3`, the Activity came to 62.1%.

As to `Cc1cc(N/N=C/c2ccc(F)cc2)c2cc3c(cc2n1)OCO3`, the Activity came out at 97%.

As for `Cc1cc(N/N=C/c2ccc([S+](C)[O-])cc2)c2cc3c(cc2n1)OCO3` (configuration not stated), the Activity was 92.4%.

As for `N#Cc1ccc(/C=N/Nc2c3c(nc4ccccc24)CCCC3)cc1`, the Activity was found to be 81.5%.

Regarding `O=[N+]([O-])c1ccc(/C=N/Nc2ccnc3ccccc23)cc1`, the Activity came to 80.6%.

Regarding `Cc1cc(N/N=C/c2ccc(Br)cc2)c2cc3c(cc2n1)OCO3`, the Activity is 78.2%.

Turning to `Cc1cc(N/N=C/c2ccc(C#N)cc2)c2ccccc2n1`, the Activity was found to be 85%.

Take `Cc1cc(N/N=C/c2ccc(C(F)(F)F)cc2)c2cc3c(cc2n1)OCO3`: the Activity was 86.1%.

In the case of `Cc1cc(N/N=C/c2ccc(NS(C)(=O)=O)cc2)c2cc3c(cc2n1)OCO3`, the Activity was determined as 72.2%.

For the molecule `Cc1cc(N/N=C/c2ccccc2[N+](=O)[O-])c2cc3c(cc2n1)OCO3`, the Activity worked out at 38.6%.

Regarding `COC(=O)c1ccc(/C=N/Nc2cc(C)nc3cc4c(cc23)OCO4)cc1`, the Activity is 85%.

As for `Cc1cc(N/N=C/c2ccccc2C(F)(F)F)c2cc3c(cc2n1)OCO3`, the Activity amounted to 100%.

With `COc1ccc2nc(C)cc(N/N=C/c3ccc([N+](=O)[O-])cc3)c2c1`, the Activity came to 12.3%.

Take `N#Cc1ccc(/C=N/Nc2ccnc3ccccc23)cc1`: the Activity was found to be 74.3%.

`Cc1cc(N/N=C/c2cccc([N+](=O)[O-])c2)c2cc3c(cc2n1)OCO3`: the Activity was determined as 97.2%.

Turning to `CCOC(OCC)c1ccc(/C=N/Nc2cc(C)nc3cc4c(cc23)OCO4)cc1`, the Activity was determined as 75.6%.

For the molecule `CC(=O)Nc1ccc(/C=N/Nc2cc(C)nc3cc4c(cc23)OCO4)cc1`, the Activity was found to be 70.9%.

For the molecule `Cc1cc(N/N=C/c2ccc(Cl)cc2)c2cc3c(cc2n1)OCO3`, the Activity is 77.9%.

As to `Cc1cc(N/N=C/c2ccc(C=O)cc2)c2cc3c(cc2n1)OCO3`, the Activity turned out to be 86.5%.

With `Cc1cc(N/N=C/c2ccc(C(=O)O)cc2)c2cc3c(cc2n1)OCO3`, the Activity stood at 75.5%.

As for `O=[N+]([O-])c1ccc(/C=N/Nc2ccncc2)cc1`, the Activity was found to be 84.6%.

Regarding `Cc1cc(N/N=C/c2ccc(/C(N)=N/O)cc2)c2cc3c(cc2n1)OCO3`, the Activity amounted to 73.9%.

As to `COc1ccc2nccc(N/N=C/c3ccc([N+](=O)[O-])cc3)c2c1`, the Activity was 32.4%.

As to `Cc1cc(NNC(=O)c2ccc([N+](=O)[O-])cc2)c2cc3c(cc2n1)OCO3`, the Activity was 64.4%.

A further experiment addresses T2, Subtilisin-like protease 1 (Plasmodium falciparum, UniProt O61142).
T2 sequence (O61142 whole entry): T1 sequence (whole entry)
Kind of experiment: Inhibition of Plasmodium falciparum SUB1 by fluorimetric assay.
`O=[N+]([O-])c1ccc(/C=N/Nc2c3c(nc4ccccc24)CCCC3)cc1` registered an IC50 above 50 µM.

As to `O=[N+]([O-])c1ccc(C=NNc2nc3ccccc3[nH]2)cc1`, the IC50 was above 50 µM.

For the molecule `Cc1cc(N/N=C/c2ccc([N+](=O)[O-])cc2)c2cc3c(cc2n1)OCO3`, the IC50 came to 20 µM. That is a double-digit micromolar value.

For the molecule `Cc1cc(N/N=C/c2ccc(C#N)cc2)c2cc3c(cc2n1)OCO3`, the IC50 came out at 40 µM.

The molecule `Cc1cc(N/N=C/c2ccccc2[N+](=O)[O-])c2cc3c(cc2n1)OCO3` showed an IC50 of 40 µM. This lies in the double-digit micromolar range.

Turning to `COc1ccc2nc(C)cc(N/N=C/c3ccc([N+](=O)[O-])cc3)c2c1`, the IC50 worked out at 20 µM. This IC50 is about 2-fold lower than that of the molecule before.

Regarding `COc1ccc2nccc(N/N=C/c3ccc([N+](=O)[O-])cc3)c2c1`, the IC50 stood at 50 µM.

(Values after ChEMBL document CHEMBL2057068, “Quinolylhydrazones as novel inhibitors of Plasmodium falciparum serine protease PfSUB1” (Bioorg Med Chem Lett, 2012).)
